Values quoted from earlier work in patent US9682147B2, “Self-preserved oil dispersions comprising boric acid” (SANTEN SAS, priority 2012, dated 2017).
Where two headings read alike, the source gives them in different places.

Tests used:
corneal cells = conditions: boric acid used in cleaning contact lenses solutions
[1] = tested on: corneal and epithelial cells
[2] = solution comprising 1.2% w/w of borate

Compound	Corneal cytotoxicity (corneal cells)	Toxicity to corneal and epithelial cells ([1]; 0.5% to 1% boric acid)	Toxicity to corneal and epithelial cells ([1]; concentration of 0.1% boric acid)	Antimicrobial activity [2]	Criteria for antimicrobial effectiveness given by USP [2]
OB(O)O [boric acid]	strong corneal cytotoxicity	toxic	safe		
borate				some antimicrobial activity	not sufficient to meet the criteria
